Measured values from the supplement of paper PMC3974653.
“And” between values parts separate entries of the source, which are not always exact repeats. Equal entries are not always repeated. Structures can show the parent of a compound that is named as a salt.

Tests used:
Details in all cases: (24 or 48 h)
[1] = tested on: MTT (mouse pheochromocytoma); assay: IC50 of cell viability (ATP content); AC50 where efficacy is positive
[2] = tested on: MTT (mouse pheochromocytoma); assay: efficacy (maximal response) relative to doxorubicin = -100% and DMSO = 0%; higher = less inhibition of viability
[3] = tested on: MTT (mouse pheochromocytoma); assay: IC50 of cell viability (ATP content)
Procedure, shortened: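 Library compounds were tested at 8 final concentrations (0.5 nM to 46 µM) on MTT mouse pheochromocytoma cells for 24 or 48 hrs, with readout by CellTiter-Glo ATP luminescence. Signals were normalised with positive-control wells at 100% and DMSO wells at 0%. IC50 values were obtained by a four-parameter logistic fit.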

Structure (SMILES) | IC50 of cell viability [1] | efficacy [2] | IC50 of cell viability [3] [µM]
CC(=O)Nc1ccc(NC(=S)NC(=O)c2ccc(C(C)(C)C)cc2)cc1 | 2.66 µM | -56% | –
Nc1ncn(C2C[C@H](O)[C@@H](CO)O2)c(=O)n1 (stereo partly drawn) | 0.0668 µM | -51.6% | –
O=C(CCl)c1ccc(Cl)cc1Cl [2,2',4'-Trichloroacetophenone] | 8.63 µM and 3.76 µM | -84.4% and -71.5% | –
F\C1=C\NC(=O)NC1=O [5-Fluorouracil] | 11.9 µM | -67.4% | –
Sc1ncnc2[nH]cnc12 [6-Mercaptopurine monohydrate] | 21.1 µM | -78.1% | –
NC/1=N/C(S)C/2\N=C/NC2=N1 (stereo not drawn) [6-Thioguanine (6-TG)] | 21.1 µM | -78.6% | –
Cl.Nc1c2ccccc2nc2ccccc12.O [9-Aminoacridine HCl H2O] | 21.1 µM | -110% | –
C=CCNC1=C2C[C@@H](C)C[C@H](OC)[C@H](O)[C@@H](C)/C=C(\C)[C@H](OC(N)=O)[C@@H](OC)C=C/C=C(\C)C(=O)NC(=CC1=O)C2=O [17-Allylamino-geldanamycin] | 4.22 µM | -80.6% | –
Cl.CC(C)(C)[C@]1(O)CC[N@@]2C[C@H]3C4=C(CCC5=CC=CC(=C35)[C@@H]2C1)C=CC=C4 [(?)-Butaclamol hydrochloride] | 21.1 µM | -70.8% | –
CC[C@@]1(O)C[C@H](O[C@H]2C[C@@H](N(C)C)[C@@H](O[C@H]3C[C@@H](O)[C@@H](O[C@H]4CCC(=O)[C@@H](C)O4)[C@@H](C)O3)[C@@H](C)O2)c2c(cc3c(c2O)C(=O)c2c(O)cccc2C3=O)[C@H]1C(=O)OC [ACLARUBICIN HYDROCHLORIDE] | 2.11 µM | -41.5% | –
C[n+]1c2cc(N)ccc2cc2ccc(N)cc21.[Cl-] [ACRIFLAVINIUM HYDROCHLORIDE] | 10.6 µM | -50.3% | –
C[S+](CC[C@H](N)C(=O)O)C[C@H]1O[C@@H](n2cnc3c(N)ncnc32)[C@H](O)[C@@H]1O (stereo partly drawn) [ADEMETIONINE] | 21.1 µM | -49.1% | –
O=S(=O)([O-])c1cc(O)c2c(/N=N/c3ccc(Nc4ccccc4)c4c(S(=O)(=O)[O-])cccc34)cc(S(=O)(=O)[O-])cc2c1 [ANAZOLENUM NATRICUM] | 2.37 µM | -33.8% | –
CC[NH+](CC)CCCN(c1ccccc1)C1Cc2ccccc2C1 [APRINDINE HYDROCHLORIDE] | 26.6 µM | -107% | –
COc1ccc(CCN2CCC(Nc3nc4ccccc4n3Cc3ccc(F)cc3)CC2)cc1 [ASTEMIZOLE] | 16.8 µM | -74.8% | –
CCCSc1ccc2[nH]c(NC(=O)OC)nc2c1 [Albendazole] | 0.718 µM | -57.9% | –
N=c1ccn2c(n1)O[C@H]1[C@H](O)[C@@H](CO)O[C@H]12 [Ancitabina] | 2.37 µM | -68.2% | –
C[C@@H]1CC[C@H]2[C@@H](C)C(=O)O[C@@H]3O[C@]4(C)CC[C@@H]1[C@@]32OO4 [Artemisinin] | 10.6 µM | -62% | –
CC[P](CC)(CC)=[Au][S][C@@H]1OC(COC(C)=O)[C@@H](OC(C)=O)[C@H](OC(C)=O)C1OC(C)=O (stereo partly drawn) [Auranofin] | 2.66 µM | -86.7% | –
NC/1=N/C(=O)N(/C=N1)[C@@H]2O[C@H](CO)[C@@H](O)[C@H]2O [Azacitidine] | 1.33 µM | -71.2% | –
C/C(=C(/CCOC(=O)C(C)C)SS/C(CCOC(=O)C(C)C)=C(\C)N(C=O)Cc1cnc(C)nc1N)N(C=O)Cc1cnc(C)nc1N [BISIBUTHIAMINE] | 21.1 µM | -43.4% | –

Structure (SMILES) | IC50 of cell viability [1] | efficacy [2] | IC50 of cell viability [3] [µM]
CC(C)C[C@@H](NC(=O)[C@@H](Cc1ccccc1)NC(=O)c1cnccn1)B(O)O [BORTEZOMIB] | 0.596 µM | -74.6% | –
CC(C)(Cc1c[nH]c2ccccc12)NCC(O)COc1ccccc1C#N (stereo not drawn) [BUCINDOLOLUM] | 11.9 µM | -41.7% | –
[H]/N=C(/c1ccc(OCCCCCC)c2ccccc12)N(CCCC)CCCC [BUNAMIDINE HYDROCHLORIDE] | 18.8 µM | -96.3% | –
CC(C)(C)CC(C)(C)c1ccc(OCCOCC[N+](C)(C)Cc2ccccc2)cc1 [Benzethonium chloride] | 10.6 µM | -94.4% | –
COc1ccc2cc3[n+](cc2c1OC)CCc1cc2c(cc1-3)OCO2 [Berberine chloride] | 4.22 µM | -53.9% | –
CCN(CC)C1=CC=C(C=C1)C(\C2=CC=CC=C2)=C3\C=C/C(/C=C3)=[N+](\CC)CC [Brilliant Green] | 1.68 µM | -108% | –
O=[N+]([O-])C(Br)(CO)CO [Bronopol] | 15 µM | -58.4% | –
CC1=CC(=CC=C1N)C(\C2=CC=C(N)C=C2)=C3/C=CC(=N)C=C3 [C.I. Basic Violet 14, free base] | 2.37 µM | -47.4% | –
CC(C)OC(=O)Nc1ccc2[nH]c(-c3cscn3)nc2c1 [CAMBENDAZOLE] | 8.41 µM | -45.2% | –
CCCCCCNC(=O)N1\C=C(F)/C(=O)NC1=O [CARMOFUR] | 1.88 µM | -56.9% | –
CC(=O)[C@]1(O)Cc2c(O)c3c(c(O)c2[C@@H](O[C@H]2C[C@H](N)[C@H](O)[C@H](C)O2)C1)C(=O)c1c(O)cccc1C3=O [CARUBICINUM] | 2.99 µM | -59.2% | –
OCCOCCN1CCN(CC1)C/2=N/C3=CC=CC=C3SC4=CC=CC=C24 [quetiapine] | – | – | > 46
CN1[C@@H]2C[C@H](OC(=O)[C@@H](CO)c3ccccc3)C[C@@H]1[C@H]1O[C@H]12 [scopolamine] | – | – | > 46
Nc1ccc([S+](=O)([O-])Nc2ncccn2)cc1.[Ag] [sulfadiazine] | – | – | > 46
Nc1ccc([S+](=O)([O-])Nc2cnc3ccccc3n2)cc1 [sulfaquinoxaline] | – | – | > 46
CC(C)(C)c1cc(O)ccc1O [tert-Butylhydroquinone] | – | – | > 46
CC(C)C(C)(C)C(C)(C)C(C)(C)S [tert-Dodecanethiol] | – | – | > 46
Cc1ccc(/C(=C\CN2CCCC2)c2ccccn2)cc1 [trans-TRIPROLIDINE] | – | – | > 46
COC[C@@H](c1ccc(C(F)(F)F)cc1)N1CCN(C2(C)CCN(C(=O)c3c(C)ncnc3C)CC2)C[C@@H]1C [vicriviroc maleate] | – | – | > 46
OCC(CO)NC1C[C@](O)(CO)[C@@H](O)[C@H](O)[C@H]1O (stereo partly drawn) [voglibose] | – | – | > 46
